Experimental data: US20170158699A1, “ADDITION SALTS OF (S)-2-(1-(6-AMINO-5-CYANOPYRIMIDIN-4-YLAMINO)ETHYL)-4-OXO-3-PHENYL-3,4-DIHYDROPYRROLO[1,2-F][1,2,4]TRIAZINE-5-CARBONITRILE” (Almirall, S.A., priority 2014, published 2017)
Converted amounts (≈) assume the structure as drawn. Read-outs that look alike come from different tables or passages of the source.

Assays:
Assay type in all cases: physicochemical
Water-solubility test = conditions: room temperature (25° C.)
[1] = Gravimetric Vapour Sorption (GVS) isotherm, XRPD checked afterwards; conditions: for Hygroscopicity / water sorption behaviour (GVS): 0-90% RH; for Hygroscopicity / water sorption behaviour (GVS) / GVS mass change: 25° C.; for Change in form or crystallinity (XRPD) after GVS measurement: XRPD before and after GVS; for GVS mass change: from 0-90% RH
Procedure: X-Ray Powder Diffraction (XRPD) patterns were collected on a Bruker D8 diffractometer using Cu Ka radiation (40 kV, 40 mA), θ-2θ goniometer, and divergence of V4 and receiving slits, a Ge monochromator and a Lynxeye detector. The instrument is performance checked using a certified Corundum standard (NIST 1976). The software used for data collection was Diffrac Plus XRD Commander v2.6.1 and the data were analysed and presented using Diffrac Plus EVA v13.0.0.2 or v15.0.0.0.
Samples were run under ambient conditions as flat plate specimens using powder as received. The sample was gently packed into a cavity cut into polished, zero-background (510) silicon wafer. The sample was rotated in its own plane during analysis. The details of the data collection were: • Angular range: 2 to 42° 2θ • Step size: 0.05° 2θ • Collection time: 0.5 s/step
Gravimetric Vapour Sorption (GVS; also known as Dynamic Vapour Sorption or DVS) isotherms were obtained using a SMS DVS Intrinsic moisture sorption analyser, controlled by DVS Intrinsic Control software v1.0.1.2. The sample temperature was maintained at 25° C. by the instrument controls. The humidity was controlled by mixing streams of dry and wet nitrogen, with a total flow rate of 200 mL/min The relative humidity was measured by a calibrated Rotronic probe (dynamic range of 1.0-100% RH), located near the sample. The weight change, (mass relaxation) of the sample as a function of % RH was constantly monitored by the microbalance (accuracy ±0.005 mg).
Typically 5-20 mg of sample were placed in a tared mesh stainless steel basket under ambient conditions. The sample was loaded and unloaded at 40% RH and 25° C. (typical room conditions). A moisture sorption isotherm was performed as outlined below (4 scans giving 2 complete cycles). The standard isotherm was performed at 25° C. at 10% RH intervals over a 0-90% RH range.

[2] = Differential scanning calorimetry (DSC) thermal stability
Procedure: The differential scanning calorimetry (DSC) thermograms were obtained using a TA Instruments Q2000 equipped with a 50 position auto-sampler. The calibration for thermal capacity was carried out using sapphire and the calibration for energy and temperature was carried out using certified indium. […] (some runs up to 400° C.). A purge of dry nitrogen at 50 ml/min was maintained over the sample.

Molecule | Water Solubility @ 25° C. (Water-solubility test) [µg/mL] | Hygroscopicity / water sorption behaviour (GVS) [1] | Change in form or crystallinity (XRPD) after GVS measurement [1] | GVS mass change [1] | Stability of the sample up to temperature (DSC) ([2]; heated at 10° C./min, dry nitrogen purge) | Stability of the sample up to temperature (DSC) [2] | solubility (Water-solubility test) [µg/mL]
(S)-2-(1-(6-amino-5-cyanopyrimidin-4-ylamino)ethyl)-4-oxo-3-phenyl-3,4-dihydropyrrolo[1,2-f][1,2,4]triazine-5-carbonitrile methanesulfonate [Example 1] | 60 | not hygroscopic | no change in form or crystallinity | approx. 1.2% | more than 300 °C | – | –
C[C@H](Nc1ncnc(N)c1C#N)c1nn2ccc(C#N)c2c(=O)n1-c1ccccc1.Cc1ccc(S(=O)(=O)O)cc1 [Example 3, (S)-2-(1-(6-amino-5-cyanopyrimidin-4-ylamino)ethyl)-4-oxo-3-phenyl-3,4-dihydropyrrolo[1,2-f][1,2,4]triazine-5-carbonitrile para-toluenesulfonate] | – | not hygroscopic | no change in form or crystallinity | approx. 0.3% | – | more than 250 °C | –
C[C@H](Nc1ncnc(N)c1C#N)c1nn2ccc(C#N)c2c(=O)n1-c1ccccc1 [Example C1, (S)-2-(1-(6-amino-5-cyanopyrimidin-4-ylamino)ethyl)-4-oxo-3-phenyl-3,4-dihydropyrrolo[1,2-f][1,2,4]triazine-5-carbonitrile] | – | – | – | – | – | – | 1 (≈ 2.52 µM)
C[C@H](Nc1ncnc(N)c1C#N)c1nn2ccc(C#N)c2c(=O)n1-c1ccccc1.O=S(=O)(O)c1ccc2ccccc2c1 [Example 2, (S)-2-(1-(6-amino-5-cyanopyrimidin-4-ylamino)ethyl)-4-oxo-3-phenyl-3,4-dihydropyrrolo[1,2-f][1,2,4]triazine-5-carbonitrile naphthalene-2-sulfonate] | – | reversible and no hydrates were formed | no change in form or crystallinity | approx. 3.3% | – | more than 250 °C | –
